Assay results published in patent US12011475B2, “Polypeptide, polypeptide fragment, derivative thereof, and applications thereof” (CHENGDU HUITAI BIOMEDICINE CO., LTD., priority 2017, dated 2024).
Square brackets hold non-standard residues; d marks the D form. Primed or numbered codes have the meaning given here. Ends that are not written are not given here. PEG2′ = not defined here

Tests used:
[1] = system: rat with pulmonary fibrosis induced by bleomycin; assay: HE staining and alveolitis score of rat lung tissue (Example 4); format: in vivo; conditions: 2.5 mg/kg peptide + 3 mg/kg bleomycin intratracheal; for inflammatory pathology score (degree of alveolitis, grade 0 to 3): vs BLM group, p<0.01, FIG. 3; for pathological changes in lung tissue (HE staining): vs model group, FIG. 2
Description: (§1) The rats were weighed before administration, intramuscularly injected with 65 mg/kg Zoletil anesthetic solution. After the rats entered the stage III anesthesia, the experimental rats were fixated in the lateral decubitus. Gavage needle size 12 was inserted into rat trachea through oral cavity along the glottis to instill with drug. The experimental animals were fed normally from the 1st day to the 7th day after intratracheal administration, and were weighed every day with feed and water ad libitum.
(§2) The rats in blank control group were received no treatment after anesthesia; the rats in model group (bleomycin) were intratracheally instilled with bleomycin (3 mg/kg); the rats in PBS control group were intratracheally instilled with an equal volume of sterile PBS buffer (0.01 M, pH=9.5); the rats in polypeptide control group were intratracheally instilled with 2.5 mg/kg of the polypeptide N2 (the solvent was 0.01 M, pH=9.5 PBS buffer); the rats in N2 treatment group were intratracheally instilled with 2.5 mg/kg of the polypeptide N2 and 3 mg/kg of bleomycin simultaneously, the rats in N3 treatment group were intratracheally instilled with 2.5 mg/kg of the polypeptide N3 and 3 mg/kg of bleomycin simultaneously.
The lung tissue of the rats of Example 2 was taken, fixed with 4% paraformaldehyde and embedded in paraffin. The wax block embedded the lung tissue was sectioned along the largest cross section. Pathological changes in lung tissue were observed using hematoxylin-eosin (HE) staining. Pathological changes in lung tissue were observed under a light microscope (low magnification) at a magnification of 100 times (the result is shown in FIG. 2).
According to the method provided by Szapie, et al., the degree of alveolitis was graded according to the range of lesions and could be divided into 0 to 3 grades, corresponding to 0 to 3 points. The evaluation indexes for the degree of alveolitis are as follows: grade 0, no alveolitis; grade 1, mild alveolitis, manifested as a slight increase in alveolar septum, infiltration of monocytes, near the pleura or localized, with a lesion range of less than 20% without alveolar structural damage; grade 2, moderate alveolitis, the lesion ranges from 20% to 50%, relatively severe near the pleura; grade 3, severe alveolitis, diffusely distributed, the lesion range is more than 50%, with pulmonary parenchymal lesion occasionally.

[2] = system: Fibronectin, Collagen I and Collagen III; assay: Western blot of extracellular matrix protein in lung tissue homogenate (Example 6); format: in vivo, rat; conditions: vs bleomycin group, 2.5 mg/kg peptide intratracheal; for levels of Fibronectin, Collagen I and Collagen III proteins (grayscale value): p<0.05, FIG. 6; for intensities of the expression bands of Fibronectin, Collagen I and Collagen III in lung tissue: GAPDH internal reference, FIG. 5
Description: as §1, §2
The rat lung tissue of Example 2 was taken, and homogenized using RIPA lysate (100 mg of lung tissue corresponding to 1 mL of lysate), centrifuged and the supernatant was taken, and then the protein concentration was determined by BCA method. Equal amounts of protein samples were taken and Western blot experiment was performed using anti-GAPDH, anti-Fibronectin, anti-Collagen I and anti-Collagen III antibodies (the result is shown in FIG. 5).
The grayscale value of each band was detected and analyzed using Image pro plus 6.0 image analysis software (the result is shown in FIG. 6). […] The detection of grayscale value supported the above-mentioned description.

[3] = system: TGF-β/Smad signaling pathway; assay: Western blot of Smad protein in lung tissue homogenate (Example 8); format: in vivo, rat; conditions: vs bleomycin group, 2.5 mg/kg peptide intratracheal; for levels of p-Smad2 and p-Smad3 proteins (grayscale value): p<0.05, FIG. 9; for intensities of the expression bands of p-Smad2 and p-Smad3 in lung tissue: GAPDH internal reference, FIG. 8
Description: as §1, §2
The rat lung tissue of Example 2 was taken, and the tissue was homogenized using RIPA lysate (100 mg of lung tissue corresponding to 1 mL of lysate), centrifuged and the supernatant was taken, and then the protein concentration was determined by BCA method. Equal amounts of protein samples were taken and Western blot experiment was performed using anti-GAPDH, anti-p-Smad2 and anti-p-Smad3 antibodies (the result is shown in FIG. 8).
The grayscale value of each band was detected and analyzed using Image pro plus 6.0 image analysis software (the result is shown in FIG. 9). […] The detection of grayscale value supported the above-mentioned description.

[4] = system: rat with pulmonary fibrosis induced by bleomycin; assay: Lung coefficient, bleomycin rat model (Examples 2-3); format: in vivo; conditions: vs bleomycin group; 2.5 mg/kg peptide + 3 mg/kg bleomycin intratracheal, simultaneously; p<0.05; FIG. 1
Description: (§3) The rats were weighed before administration, intramuscularly injected with 65 mg/kg Zoletil anesthetic solution. After the rats entered the stage III anesthesia, the experimental rats were fixated in the lateral decubitus. Gavage needle size 12 was inserted into rat trachea through oral cavity along the glottis to instill with drug. The experimental animals were fed normally from the 1st day to the 7th day after intratracheal administration, and were weighed every day with feed and water ad libitum. […]
The rats in Example 2 were weighed and sacrificed by anesthesia overdose. […] After the wet weight of the whole lung was weighted by the electronic balance, the lung coefficient was calculated according to the formula, lung coefficient=lung mass (mg)/body weight (g) (the result is shown in FIG. 1).

[5] = system: rat with pulmonary fibrosis induced by bleomycin; assay: Inflammatory cells in bronchoalveolar lavage fluid, Wright-Giemsa staining (Example 5); format: in vivo; conditions: vs bleomycin group; 2.5 mg/kg peptide + 3 mg/kg bleomycin intratracheal; p<0.05; FIG. 4
Description: as §3
Bronchoalveolar lavage fluid was collected, and […] by centrifugation. […] The counting method was: the number of macrophages, lymphocytes, and neutrophils was calculated according to the total number of inflammatory cells based on the respective proportion of macrophages, lymphocytes, and neutrophils in 100 intact cells (the result is shown in FIG. 4).

[6] = system: rat with pulmonary fibrosis induced by bleomycin; assay: Hydroxyproline content in lung tissue homogenate, alkali hydrolysis kit (Example 7); format: in vivo; conditions: vs bleomycin group; 2.5 mg/kg peptide intratracheal; p<0.05; FIG. 7
Description: as §3
The rats of Example 2 were taken, and the hydroxyproline content in lung tissue homogenate was detected using Boster Hydroxyproline Alkali Hydrolysis Assay Kit (Cat. No. A030) (the result is shown in FIG. 7).

TGF-β signaling pathway = assay: ctgf, Collagen I and Collagen III in lung tissue by RT-qPCR (Example 11); format: in vivo, rat; conditions: vs model group; 6 mg/kg peptide + 3 mg/kg bleomycin intratracheal; 18S RNA reference; p<0.05; FIG. 11
Description: (§4) The rats were weighed before administration, intramuscular injection of Zoletil anesthetic solution, the dose was 65 mg/kg. After the rats entered the stage III anesthesia, the experimental rats were bond in the incline lateral decubitus. A size 12 gavage needle was inserted into rat trachea through oral cavity along the glottis to infuse the drug. The experimental animals were fed normally from the 1st day to the 14th day after intratracheal administration, and were weighed regularly every day without restriction of feed or drinking water. […]
The rat lung tissue in the model group, the control group and the N4 treatment group of Example 9 was taken. […] After obtaining cDNA using reverse transcription, fluorescence quantitative PCR (qPCR) kit (Applied Biosystems, Cat. No. 4319413E) was used to detect the expression levels of connective tissue growth factor ctgf (forward primer: 5′-[…]-3′, reverse primer: 5′-[…]-3′) downstream of the TGF-β pathway, Collagen I (forward primer: 5′-TGCCGATGTCGCTATCCA-3′, reverse primer: 5′-[…]-3′) and Collagen III (forward primer: 5′-[…]-3′, reverse primer: 5′-[…]-3′). […]

active TGF-β = assay: Active TGF-β in lung tissue by ELISA (Examples 9-10); format: in vivo, rat; conditions: vs model group; 6 mg/kg peptide + 3 mg/kg bleomycin intratracheal; p<0.05; FIG. 10
Description: as §4
The rat lung tissue in the model group, the control group and the N4 treatment group of Example 9 was taken, and homogenized using RIPA lysate (100 mg of lung tissue corresponding to 1 mL of lysate), centrifuged and the supernatant was taken, and then the protein concentration was determined by BCA method. Equal amounts of protein samples were taken and the active TGF-β content was measured by enzyme-linked immunosorbent assay ELISA (Promega, Cat. No. G7591) (the result is shown in FIG. 10), and one-way ANOVA was used for biostatistical analysis.

[7] = system: rat with pulmonary fibrosis induced by bleomycin; assay: Hydroxyproline content in lung tissue homogenate, acid hydrolysis (Example 12); format: in vivo; conditions: vs model group; 6 mg/kg peptide + 3 mg/kg bleomycin intratracheal; p<0.05; FIG. 12
Description: The rats were weighed before administration, intramuscular injection of Zoletil anesthetic solution, the dose was 65 mg/kg. After the rats entered the stage III anesthesia, the experimental rats were bond in the incline lateral decubitus. A size 12 gavage needle was inserted into rat trachea through oral cavity along the glottis to infuse the drug. The experimental animals were fed normally from the 1st day to the 14th day after intratracheal administration, and were weighed regularly every day without restriction of feed or drinking water.
The rats in model group were intratracheally instilled with bleomycin (3 mg/kg); the rats in control group were intratracheally instilled with an equal volume of saline; the rats in treatment groups were intratracheally instilled with bleomycin (3 mg/kg) and corresponding therapeutic drug (6 mg/kg) simultaneously.
The lung tissue in the model group, the control group and the N4 treatment group of Example 9 was taken, and the hydroxyproline content in the lung tissue homogenate was detected using BioVision Hydroxyproline Acid Hydrolysis Assay Kit (Cat. No. K555-100) (the result is shown in FIG. 12), and one-way ANOVA was used for biostatistical analysis.

Substance	inflammatory pathology score (degree of alveolitis, grade 0 to 3) [1]	pathological changes in lung tissue (HE staining) [1]	levels of Fibronectin, Collagen I and Collagen III proteins (grayscale value) [2]	intensities of the expression bands of Fibronectin, Collagen I and Collagen III in lung tissue [2]	levels of p-Smad2 and p-Smad3 proteins (grayscale value) [3]	intensities of the expression bands of p-Smad2 and p-Smad3 in lung tissue [3]	lung coefficients of the left lung, the right lung and the whole lung [4]	number of macrophages, heteromorphic nuclear cells and lymphocytes in bronchoalveolar lavage fluid [5]	hydroxyproline content in lung tissue [6]	gene expression levels of ctgf, collagen I and collagen III in lung tissue (TGF-β signaling pathway)	content of active TGF-β in the lung tissue (active TGF-β)	hydroxyproline content in lung tissue [7]
(PEG2)TyrArgValArgPheLeuAlaLysGluAsnValThrGlnAspAlaGluAsp ([PEG2′]YRVRFLAKENVTQDAED; listed as Homo sapiens) [N3]	significant alleviation	a small amount of inflammatory cell infiltration in the interstitial	decreased significantly	almost returned to the level of the control group	decreased significantly	almost returned to the level of the control group	decreased significantly	decreased significantly	decreased significantly	–	–	–
RFLAKENVTQD [N4]	–	–	–	–	–	–	–	–	–	decreased significantly	decreased significantly	decreased significantly
YRVRFLAKENVTQDAED [N2]	significant alleviation	a small amount of inflammatory cell infiltration in the interstitial	decreased significantly	almost returned to the level of the control group	decreased significantly	almost returned to the level of the control group	decreased significantly	decreased significantly	decreased significantly	–	–	–
